In ChEMBL document CHEMBL3627693, “Novel aminotetrazole derivatives as selective STAT3 non-peptide inhibitors” (Eur J Med Chem, 2015):
The source made the active and inactive calls. The calls are words filed in the database; no cut-off is given here.

Assays:
[1] = molecular target: Signal transducer and activator of transcription 3 (Homo sapiens, UniProt P40763); assay: Inhibition of STAT3 (unknown origin) expressed in Oncostatin M induced human HeLa cells at 50 uM incubated for 1 hr by luciferase reporter gene assay; assay type: cell-based
[2] = molecular target: T1, Signal transducer and activator of transcription 1-alpha/beta (Homo sapiens) (UniProt P42224); assay: Inhibition of STAT1 (unknown origin) expressed in IFN-gamma induced human HeLa cells at 50 uM incubated for 1 hr by luciferase reporter gene assay; assay type: cell-based
T1 sequence (whole entry): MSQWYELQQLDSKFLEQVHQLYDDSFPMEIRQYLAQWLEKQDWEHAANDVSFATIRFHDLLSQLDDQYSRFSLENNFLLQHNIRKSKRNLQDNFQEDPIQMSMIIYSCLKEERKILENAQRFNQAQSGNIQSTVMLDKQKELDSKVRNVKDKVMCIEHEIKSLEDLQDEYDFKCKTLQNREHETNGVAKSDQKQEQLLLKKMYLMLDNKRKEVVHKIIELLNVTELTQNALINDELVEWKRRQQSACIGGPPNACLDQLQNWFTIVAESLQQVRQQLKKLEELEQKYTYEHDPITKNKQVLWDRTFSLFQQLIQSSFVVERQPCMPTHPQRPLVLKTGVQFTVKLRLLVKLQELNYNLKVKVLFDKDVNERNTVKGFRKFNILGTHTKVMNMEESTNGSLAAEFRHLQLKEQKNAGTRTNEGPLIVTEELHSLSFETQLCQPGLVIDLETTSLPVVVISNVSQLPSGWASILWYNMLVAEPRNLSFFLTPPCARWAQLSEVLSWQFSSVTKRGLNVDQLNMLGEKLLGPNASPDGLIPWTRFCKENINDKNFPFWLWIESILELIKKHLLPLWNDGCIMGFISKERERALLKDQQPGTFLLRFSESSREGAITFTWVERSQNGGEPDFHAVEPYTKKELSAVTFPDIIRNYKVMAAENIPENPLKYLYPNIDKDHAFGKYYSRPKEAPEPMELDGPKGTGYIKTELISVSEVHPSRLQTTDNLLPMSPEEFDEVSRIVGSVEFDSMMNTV

Chain of Signal transducer and activator of transcription 3 (P40763 whole entry): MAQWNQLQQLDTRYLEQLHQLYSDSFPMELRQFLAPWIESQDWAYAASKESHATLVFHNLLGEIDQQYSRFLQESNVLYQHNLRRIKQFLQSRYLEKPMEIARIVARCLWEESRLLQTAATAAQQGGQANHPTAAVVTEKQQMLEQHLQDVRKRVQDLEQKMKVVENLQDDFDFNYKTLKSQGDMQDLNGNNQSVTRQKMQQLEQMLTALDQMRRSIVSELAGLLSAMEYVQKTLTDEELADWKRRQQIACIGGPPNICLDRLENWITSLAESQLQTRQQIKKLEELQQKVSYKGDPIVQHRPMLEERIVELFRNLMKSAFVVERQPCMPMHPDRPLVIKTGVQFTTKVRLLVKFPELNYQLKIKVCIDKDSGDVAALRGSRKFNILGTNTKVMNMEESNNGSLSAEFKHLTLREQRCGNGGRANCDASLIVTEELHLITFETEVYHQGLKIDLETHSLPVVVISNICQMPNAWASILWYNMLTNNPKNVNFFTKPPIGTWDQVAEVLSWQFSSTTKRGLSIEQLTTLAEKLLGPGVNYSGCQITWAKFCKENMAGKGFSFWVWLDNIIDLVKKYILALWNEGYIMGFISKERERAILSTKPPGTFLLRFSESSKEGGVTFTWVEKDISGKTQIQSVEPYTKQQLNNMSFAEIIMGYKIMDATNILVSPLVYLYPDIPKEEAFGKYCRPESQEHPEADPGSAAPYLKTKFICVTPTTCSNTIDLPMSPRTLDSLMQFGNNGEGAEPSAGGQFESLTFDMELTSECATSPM

| inhibition [1] | inhibition [2] [%] | SMILES |
| --- | --- | --- |
| 37.6% | 4.4 | COc1cc(CNc2nn[nH]n2)cc(Cl)c1OCc1ccc(Cl)cc1 |
| 60.1% | 59.3 | CCCCCCOc1cc(COc2c(Cl)cc(CNc3nn[nH]n3)cc2OC)ccc1[N+](=O)[O-] |
| 15.9% | 15 | COc1cc(CNc2nn[nH]n2)cc(Cl)c1OCc1cccc(C(N)=O)c1 |
| Active | – | CC(C)COC(=O)CN1C(=O)S/C(=C\c2ccc(C(=O)O)cc2)C1=O |
| 48% | 0 | COc1cc(CNc2nn[nH]n2)cc(Br)c1OCc1ccc([N+](=O)[O-])cc1 |
| 66.4% | 43.6 | COc1cc(CO)cc(Cl)c1OCc1ccc([N+](=O)[O-])cc1 |
| 48.5% | 11.5 | COc1cc(CNc2nn[nH]n2)cc(Cl)c1OCc1ccc(C(F)(F)F)cc1 |
| 26.9% | 11.1 | Clc1cc(CNc2nn[nH]n2)cc(OCCCc2ccccc2)c1OCc1ccccc1 |
| 32.8% | 0 | COc1cc(CCc2nn[nH]n2)cc(Cl)c1OCc1ccc(C)cc1 |
| 45.1% | 19.2 | COc1cc(CNc2nn[nH]n2)cc(OC)c1OCc1ccc([N+](=O)[O-])cc1 |
| 36.9% | 10 | COc1cc(CNc2nn[nH]n2)cc(Cl)c1OCc1cccc(C(=O)O)c1 |
| 82.7% | 72.9 | CCCCCCCCCOc1cc(COc2c(Cl)cc(CNc3nn[nH]n3)cc2OC)ccc1[N+](=O)[O-] |
| 71% | 13.1 | C[C@@H]1CC(=O)c2c(ccc3c2C(=O)c2cccc(O)c2C3=O)C1 |
| 95.9% | 44.5 | COc1cc(CN2C(=O)c3ccccc3C2=O)cc(Cl)c1OCc1ccc([N+](=O)[O-])cc1 |
| 62.7% | 16.5 | COc1cc(CNc2nn[nH]n2)cc(I)c1OCc1ccc(C)cc1 |
| Active | – | C=CCN1C(=O)C(CC(=O)Nc2ccc(C(=O)O)cc2)S/C1=N/c1cccc(Cl)c1 (centres undefined) |
| 8.2% | 0 | COc1cc(CNc2nn[nH]n2)cc(Cl)c1OCc1cccc(-c2ccccc2)c1 |

| inhibition [1] | inhibition [2] [%] | SMILES |
| --- | --- | --- |
| 25.3% | 0.6 | O=[N+]([O-])c1ccc(COc2c(O)cc(CNc3nn[nH]n3)cc2Cl)cc1 |
| 41.1% | 12.9 | COc1cc(CNc2nn[nH]n2)cc(Cl)c1OCc1ccc(C(=O)O)cc1 |
| Active | – | COC(=O)Cc1c(C)c2ccc(OCc3nn[nH]n3)cc2oc1=O |
| 25.7% | 9.5 | COc1cc(CNc2nn[nH]n2)cc(Cl)c1OCc1ccc(C(N)=O)cc1 |
| 51.5% | 0 | COC(=O)c1ccc(COc2c(Cl)cc(CNc3nn[nH]n3)cc2OC)cc1 |
| 38.3% | 2.8 | CCCOc1cc(COc2c(Cl)cc(CNc3nn[nH]n3)cc2OC)ccc1[N+](=O)[O-] |
| Active | – | O=C(O)c1ccc(NC(=O)C2CC(=O)N(CCc3ccccc3)/C(=N/c3ccccc3)S2)cc1 (centres undefined) |
| 38.6% | 17.7 | COc1cc(CC(c2nn[nH]n2)c2nn[nH]n2)cc(Cl)c1OCc1ccc(C)cc1 |
| Active | – | CC1CCc2c(sc3ncn(Cc4ccc(C(=O)O)cc4)c(=O)c23)C1 (centres undefined) |
| 30.8% | 20.4 | Oc1cc(CNc2nn[nH]n2)cc(Cl)c1OCc1ccccc1 |
| 19.6% | 16.5 | COc1c(OCc2ccc([N+](=O)[O-])cc2)c(Cl)cc(CNc2nn[nH]n2)c1[N+](=O)[O-] |
| 52.1% | 0 | COc1cc(CNc2nn[nH]n2)cc(I)c1OCc1ccc([N+](=O)[O-])cc1 |
| 31% | 1.1 | COc1cc(CNc2nn[nH]n2)cc(Cl)c1OCc1ccccc1[N+](=O)[O-] |
| 2.6% | 13.9 | COc1cc(CNc2nn[nH]n2)cc(Cl)c1OCc1ccc(-n2nc(C)cc2C)cc1 |
| Active | – | COc1cc(CNc2nn[nH]n2)ccc1OCc1c(Cl)cccc1Cl |
| 40.1% | – | COc1cc(CNc2nn[nH]n2)cc(Cl)c1OCc1ccc([N+](=O)[O-])cc1[N+](=O)[O-] |
